Test results published in PubChem BioAssay AID2060902 (Molecular Pharmacology Branch, DTP, NCI, 2025).

Tested on: 485368-065-R3-J5-PDC spheroids with HUVEC/MSC, viability
Test: Anticancer human tumor 485368-065-R3-J5-PDC patient-derived pancreatic carcinoma cell line growth inhibition [RAS]
Details: for IC50: curve of first compound; for viability, T/C: stronger effect = lower value
Method in brief: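 Agents were tested in combination matrices in half-log decrements from a top concentration at or near clinical Cmax (10 microM if undetermined). Targets were multi-cell spheroids of tumour lines plus HUVEC and MSC stromal cells.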
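Further: spheroids exposed to agents for seven days before readout.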

`C=CC(=O)N1CCN(c2nc(OCC3CCCN3C)nc3c(F)c(-c4nc(N)cc(C)c4C(F)(F)F)c(Cl)cc23)C(C)C1` (centres undefined) + CCn1c(-c2cc(N3CCN(C)CC3)cnc2C(C)OC)c2c3cc(ccc31)-c1csc(n1)CC(NC(=O)C1CC1C)C(=O)N1CCCC(N1)C(=O)OCC(C)(C)C2 was tested, and the IC50 (second compound 0.000949 µM) was < 3.16 nM, the IC50 (second compound 0.003 µM) was < 3.16 nM and the IC50 (second compound 0.00949 µM) was < 3.16 nM. For the same compound, the IC50 (second compound 0.03 µM) was < 3.16 nM, the IC50 (second compound 0.0949 µM) was < 3.16 nM and the IC50 (second compound 0.3 µM) was < 3.16 nM. For the same compound, the viability, T/C (second compound 0.000949 µM, first compound 0.00316 µM) was 32.9%, the viability, T/C (second compound 0.000949 µM, first compound 0.01 µM) was 35.6% and the viability, T/C (second compound 0.000949 µM, first compound 0.0316 µM) was 36.7%. The viability, T/C (second compound 0.000949 µM, first compound 0.1 µM) was 29.5%, the viability, T/C (second compound 0.000949 µM, first compound 0.316 µM) was 30.1% and the viability, T/C (second compound 0.000949 µM, first compound 1 µM) was 38.9%. For the same compound, the viability, T/C (second compound 0.003 µM, first compound 0.00316 µM) was 23.4%, the viability, T/C (second compound 0.003 µM, first compound 0.01 µM) was 21.4% and the viability, T/C (second compound 0.003 µM, first compound 0.0316 µM) was 21.2%. It also gave a viability, T/C (second compound 0.003 µM, first compound 0.1 µM) of 20.9%, a viability, T/C (second compound 0.003 µM, first compound 0.316 µM) of 20.9% and a viability, T/C (second compound 0.003 µM, first compound 1 µM) of 19.6%. The viability, T/C (second compound 0.00949 µM, first compound 0.00316 µM) was 17.3%, the viability, T/C (second compound 0.00949 µM, first compound 0.01 µM) was 18.3% and the viability, T/C (second compound 0.00949 µM, first compound 0.0316 µM) was 15.8%. It also gave a viability, T/C (second compound 0.00949 µM, first compound 0.1 µM) of 15.6%, a viability, T/C (second compound 0.00949 µM, first compound 0.316 µM) of 18% and a viability, T/C (second compound 0.00949 µM, first compound 1 µM) of 15.2%. The viability, T/C (second compound 0.03 µM, first compound 0.00316 µM) was 12.1%, the viability, T/C (second compound 0.03 µM, first compound 0.01 µM) was 11.4% and the viability, T/C (second compound 0.03 µM, first compound 0.0316 µM) was 12.5%. For the same compound, the viability, T/C (second compound 0.03 µM, first compound 0.1 µM) was 12.9%, the viability, T/C (second compound 0.03 µM, first compound 0.316 µM) was 12.8% and the viability, T/C (second compound 0.03 µM, first compound 1 µM) was 15.7%. For the same compound, the viability, T/C (second compound 0.0949 µM, first compound 0.00316 µM) was 10%, the viability, T/C (second compound 0.0949 µM, first compound 0.01 µM) was 12.6% and the viability, T/C (second compound 0.0949 µM, first compound 0.0316 µM) was 11.2%. For the same compound, the viability, T/C (second compound 0.0949 µM, first compound 0.1 µM) was 9.36%, the viability, T/C (second compound 0.0949 µM, first compound 0.316 µM) was 9.84% and the viability, T/C (second compound 0.0949 µM, first compound 1 µM) was 12.7%. The viability, T/C (second compound 0.3 µM, first compound 0.00316 µM) was 10.8%, the viability, T/C (second compound 0.3 µM, first compound 0.01 µM) was 9.38% and the viability, T/C (second compound 0.3 µM, first compound 0.0316 µM) was 9%. The viability, T/C (second compound 0.3 µM, first compound 0.1 µM) was 8.35%, the viability, T/C (second compound 0.3 µM, first compound 0.316 µM) was 10.7% and the viability, T/C (second compound 0.3 µM, first compound 1 µM) was 11%.

`CC1(C)CCC(Nc2ncc(C(F)(F)F)c(-c3c[nH]c4c(P(C)(C)=O)c(C#N)ccc34)n2)CN1` (centres undefined) + CCn1c(-c2cc(N3CCN(C)CC3)cnc2C(C)OC)c2c3cc(ccc31)-c1csc(n1)CC(NC(=O)C1CC1C)C(=O)N1CCCC(N1)C(=O)OCC(C)(C)C2 was tested, and the IC50 (second compound 0.000949 µM) was < 0.949 nM, the IC50 (second compound 0.003 µM) was < 0.949 nM and the IC50 (second compound 0.00949 µM) was < 0.949 nM. The IC50 (second compound 0.03 µM) was < 0.949 nM, the IC50 (second compound 0.0949 µM) was < 0.949 nM and the IC50 (second compound 0.3 µM) was < 0.949 nM. For the same compound, the viability, T/C (second compound 0.000949 µM, first compound 0.000949 µM) was 48.5%, the viability, T/C (second compound 0.000949 µM, first compound 0.003 µM) was 36.9% and the viability, T/C (second compound 0.000949 µM, first compound 0.00949 µM) was 26.8%. For the same compound, the viability, T/C (second compound 0.000949 µM, first compound 0.03 µM) was 31%, the viability, T/C (second compound 0.000949 µM, first compound 0.0949 µM) was 31.2% and the viability, T/C (second compound 0.000949 µM, first compound 0.3 µM) was 30.4%. The viability, T/C (second compound 0.003 µM, first compound 0.000949 µM) was 24.4%, the viability, T/C (second compound 0.003 µM, first compound 0.003 µM) was 26.2% and the viability, T/C (second compound 0.003 µM, first compound 0.00949 µM) was 24.3%. It also gave a viability, T/C (second compound 0.003 µM, first compound 0.03 µM) of 23.6%, a viability, T/C (second compound 0.003 µM, first compound 0.0949 µM) of 26.9% and a viability, T/C (second compound 0.003 µM, first compound 0.3 µM) of 27.4%. For the same compound, the viability, T/C (second compound 0.00949 µM, first compound 0.000949 µM) was 17.1%, the viability, T/C (second compound 0.00949 µM, first compound 0.003 µM) was 19% and the viability, T/C (second compound 0.00949 µM, first compound 0.00949 µM) was 19.6%. The viability, T/C (second compound 0.00949 µM, first compound 0.03 µM) was 19.9%, the viability, T/C (second compound 0.00949 µM, first compound 0.0949 µM) was 24.5% and the viability, T/C (second compound 0.00949 µM, first compound 0.3 µM) was 21.1%. For the same compound, the viability, T/C (second compound 0.03 µM, first compound 0.000949 µM) was 14%, the viability, T/C (second compound 0.03 µM, first compound 0.003 µM) was 18.8% and the viability, T/C (second compound 0.03 µM, first compound 0.00949 µM) was 17.4%. It also gave a viability, T/C (second compound 0.03 µM, first compound 0.03 µM) of 18.6%, a viability, T/C (second compound 0.03 µM, first compound 0.0949 µM) of 22.4% and a viability, T/C (second compound 0.03 µM, first compound 0.3 µM) of 21.2%. For the same compound, the viability, T/C (second compound 0.0949 µM, first compound 0.000949 µM) was 13.2%, the viability, T/C (second compound 0.0949 µM, first compound 0.003 µM) was 15.9% and the viability, T/C (second compound 0.0949 µM, first compound 0.00949 µM) was 15.7%. For the same compound, the viability, T/C (second compound 0.0949 µM, first compound 0.03 µM) was 17%, the viability, T/C (second compound 0.0949 µM, first compound 0.0949 µM) was 20.2% and the viability, T/C (second compound 0.0949 µM, first compound 0.3 µM) was 23.2%. For the same compound, the viability, T/C (second compound 0.3 µM, first compound 0.000949 µM) was 11.7%, the viability, T/C (second compound 0.3 µM, first compound 0.003 µM) was 15.8% and the viability, T/C (second compound 0.3 µM, first compound 0.00949 µM) was 15.4%. It also gave a viability, T/C (second compound 0.3 µM, first compound 0.03 µM) of 21.9%, a viability, T/C (second compound 0.3 µM, first compound 0.0949 µM) of 19.4% and a viability, T/C (second compound 0.3 µM, first compound 0.3 µM) of 22.6%.
